Data reported in the supplement of paper PMC10307832.

What was measured:
Test in all cases: relative viability (nuclei count vs DMSO), 5 days (fraction); higher = more cells survive
[1] = compound: C[C@@H](Oc1cc(-c2cnn(C3CCNCC3)c2)cnc1N)c1c(Cl)ccc(F)c1Cl [Crizotinib] + N=C(N)NC(=N)NCCc1ccccc1 [Phenformin] (partner 250 µM)
Outline: (§1)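 Relative viability is defined as nuclei in treated wells over nuclei in vehicle wells. Duplicate plates were run and medians reported. Lung cancer cell lines in 1536-well plates were dosed by pin tool one day after seeding, with one drug or with a fixed anchor-drug dose plus five library-drug doses (not always all listed) in √10 steps, and nuclei were counted after 5 days.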

[2] = compound: C[C@@H](Oc1cc(-c2cnn(C3CCNCC3)c2)cnc1N)c1c(Cl)ccc(F)c1Cl [Crizotinib] + CS(=O)(=O)N1CCN(Cc2cc3nc(-c4cccc5[nH]ncc45)nc(N4CCOCC4)c3s2)CC1 [Pictilisib] (partner 1 µM)
Outline: as §1

[3] = compound: C[C@@H](Oc1cc(-c2cnn(C3CCNCC3)c2)cnc1N)c1c(Cl)ccc(F)c1Cl [Crizotinib] + COc1cccc2cc(-c3nc([C@H]4CC[C@H](C(=O)O)CC4)n4ncnc(N)c34)[nH]c12 [OSI-027] (partner 0.5 µM)
Outline: as §1

[4] = compound: CC(C)C[C@H](NC(=O)[C@H](CCc1ccccc1)NC(=O)CN1CCOCC1)C(=O)N[C@@H](Cc1ccccc1)C(=O)N[C@@H](CC(C)C)C(=O)[C@@]1(C)CO1 [Carfilzomib] + CC(=O)c1c(C)c2cnc(Nc3ccc(N4CCNCC4)cn3)nc2n(C2CCCC2)c1=O [Palbociclib] (partner 0.5 µM)
Outline: as §1

Cell Line	relative viability ([1]; first compound 0.01 µM)	relative viability ([1]; first compound 0.03162 µM)	relative viability ([1]; first compound 0.1 µM)	relative viability ([1]; first compound 0.3162 µM)	relative viability ([1]; first compound 1 µM)	relative viability ([2]; first compound 0.01 µM)	relative viability ([2]; first compound 0.03162 µM)	relative viability ([2]; first compound 0.1 µM)	relative viability ([2]; first compound 0.3162 µM)	relative viability ([2]; first compound 1 µM)	relative viability ([3]; first compound 0.01 µM)	relative viability ([3]; first compound 0.03162 µM)	relative viability ([3]; first compound 0.1 µM)	relative viability ([3]; first compound 0.3162 µM)	relative viability ([3]; first compound 1 µM)	relative viability ([4]; first compound 0.001 µM)	relative viability ([4]; first compound 0.003162 µM)	relative viability ([4]; first compound 0.01 µM)	relative viability ([4]; first compound 0.03162 µM)	relative viability ([4]; first compound 0.1 µM)
201T	0.42	0.48	0.455	0.445	0.726	0.65	0.74	0.723	0.648	0.678	0.635	0.744	0.668	0.77	0.698	0.355	0.357	0.383	0.345	0.31
A549	0.165	0.136	0.167	0.141	0.172	0.558	0.439	0.521	0.543	0.53	–	–	–	–	–	–	–	–	–	–
A-427	0.303	0.349	0.419	–	0.28	0.529	0.655	0.668	–	0.675	0.352	0.447	0.414	–	0.441	0.543	0.56	0.515	0.509	0.188
ABC-1	–	0.22	0.211	0.238	0.269	0.54	0.781	0.588	0.743	0.728	–	0.526	0.426	0.422	0.402	0.831	0.736	0.441	0.273	0.253
BEN	0.259	0.253	0.256	0.235	0.257	0.608	0.492	0.52	0.581	0.576	0.308	0.3	0.296	0.307	0.286	0.491	0.465	0.455	0.499	0.319
CAL-12T	0.503	0.609	0.606	–	0.558	0.345	0.472	0.466	–	0.355	0.639	0.71	0.67	–	0.586	0.507	0.507	0.586	0.165	0.145
COR-L23	0.376	0.409	0.426	0.389	0.428	0.695	0.747	0.705	0.771	0.775	0.742	0.73	0.674	0.76	0.723	0.29	0.305	0.211	0.0606	0.064
COR-L 105	0.384	0.516	0.406	0.431	0.492	0.353	0.386	0.39	0.354	0.403	0.577	0.803	0.657	0.562	0.728	0.413	0.414	0.35	0.317	0.329
Calu-6	–	–	–	–	–	0.881	0.942	–	0.937	0.865	–	–	–	–	–	–	–	–	–	–
ChaGo-K-1	0.457	0.511	0.486	0.329	0.457	0.736	0.651	0.825	–	0.567	0.438	0.675	0.502	0.435	0.53	0.926	0.931	0.907	0.313	0.153
EBC-1	–	–	–	–	–	0.378	0.215	0.159	0.202	0.198	–	–	–	–	–	–	–	–	–	–
EKVX	0.209	0.241	0.238	0.187	0.221	0.406	0.419	0.463	0.453	0.47	0.744	0.737	0.756	0.651	0.744	0.369	0.474	0.427	–	0.137
EMC-BAC-2	0.532	0.544	0.569	0.253	0.473	0.514	0.536	0.527	0.305	0.52	0.431	0.391	0.342	0.295	0.36	0.531	0.539	0.51	0.455	0.316
EPLC-272H	0.261	0.283	0.302	0.29	0.39	0.287	0.365	0.327	0.3	0.299	0.312	0.253	0.287	0.252	0.259	0.285	0.337	0.317	0.114	0.0482
H3255	0.348	0.424	0.385	0.327	0.334	0.36	0.486	0.533	0.468	0.456	0.6	0.652	0.633	0.509	0.61	0.334	0.331	0.309	0.231	0.264
HARA	0.468	0.501	0.462	–	0.47	0.351	0.441	0.262	0.511	0.46	0.543	0.504	0.46	–	0.432	0.28	0.257	0.306	0.182	0.0965
HCC-15	0.444	0.475	0.479	–	0.42	0.622	0.69	0.722	0.391	0.687	0.626	0.754	0.633	–	0.568	0.706	0.688	0.751	0.61	0.206
HCC-44	0.225	0.263	0.264	0.173	0.13	0.464	0.578	0.538	0.665	0.503	0.409	0.546	0.611	0.54	0.371	1.02	0.938	0.999	0.999	0.69
HCC-78	–	0.682	0.772	0.598	0.465	0.204	0.206	0.205	0.167	0.204	–	0.365	0.29	0.307	0.34	0.431	0.454	0.528	0.439	0.348
HCC-366	0.597	0.609	0.65	–	0.695	0.101	0.141	0.183	0.11	0.17	0.885	0.931	0.889	–	0.901	0.374	0.361	0.396	0.327	0.0404

Cell Line	relative viability ([1]; first compound 0.01 µM)	relative viability ([1]; first compound 0.03162 µM)	relative viability ([1]; first compound 0.1 µM)	relative viability ([1]; first compound 0.3162 µM)	relative viability ([1]; first compound 1 µM)	relative viability ([2]; first compound 0.01 µM)	relative viability ([2]; first compound 0.03162 µM)	relative viability ([2]; first compound 0.1 µM)	relative viability ([2]; first compound 0.3162 µM)	relative viability ([2]; first compound 1 µM)	relative viability ([3]; first compound 0.01 µM)	relative viability ([3]; first compound 0.03162 µM)	relative viability ([3]; first compound 0.1 µM)	relative viability ([3]; first compound 0.3162 µM)	relative viability ([3]; first compound 1 µM)	relative viability ([4]; first compound 0.001 µM)	relative viability ([4]; first compound 0.003162 µM)	relative viability ([4]; first compound 0.01 µM)	relative viability ([4]; first compound 0.03162 µM)	relative viability ([4]; first compound 0.1 µM)
HCC-827	0.359	0.397	0.412	0.346	0.397	1.1	1.03	0.943	0.96	0.961	0.704	0.738	0.793	0.461	0.467	0.499	0.459	0.72	0.459	0.159
HOP-62	0.7	0.625	0.731	0.556	0.714	0.469	0.625	0.779	0.342	0.624	0.816	0.84	0.822	0.765	–	0.44	0.496	0.41	0.19	0.0616
IA-LM	–	–	–	–	–	0.34	0.331	0.353	0.343	0.305	–	–	–	–	–	–	–	–	–	–
LC-2-ad	0.572	0.6	0.544	0.463	0.544	0.473	0.426	0.461	–	0.44	0.761	0.974	0.96	0.612	0.705	0.549	0.495	0.488	0.481	0.32
LCLC-97TM1	0.472	0.468	0.508	0.454	0.441	0.205	0.18	0.182	0.128	0.194	0.506	0.457	0.462	0.486	0.354	0.217	0.214	0.24	0.0666	0.0679
LCLC-103H	0.348	0.313	0.337	0.328	0.294	0.547	0.65	0.669	0.583	0.576	0.483	0.485	0.361	0.495	0.428	0.415	0.47	0.465	0.494	0.416
LK-2	0.583	0.37	0.221	–	0.325	0.51	0.59	0.492	0.645	0.568	0.196	0.186	0.166	0.189	0.183	0.661	0.659	0.846	0.116	0.106
LOU-NH91	0.684	0.756	0.788	0.706	0.683	0.45	0.531	0.618	0.515	0.484	0.713	0.724	0.798	0.712	0.706	0.492	0.543	0.514	0.363	0.314
LU99A	0.761	0.857	0.786	0.769	1	0.261	0.327	0.348	0.336	0.365	0.304	0.319	0.294	0.259	0.275	0.408	0.402	0.439	0.351	0.188
LXF-289	0.494	0.512	0.54	0.406	0.557	0.757	0.803	0.726	0.757	0.782	0.769	0.809	0.758	0.489	0.877	0.586	0.582	0.569	0.0924	0.12
NCI-H522	0.702	0.612	0.527	0.768	0.649	–	–	–	–	–	0.672	0.718	0.702	0.739	0.701	0.873	0.977	0.848	1.08	0.274
NCI-H596	0.754	0.859	0.68	0.761	0.754	0.348	0.378	0.354	0.414	0.367	0.715	0.857	0.693	0.564	0.67	–	–	–	–	–
NCI-H1299	–	–	–	–	–	0.827	0.647	0.728	0.718	0.909	–	–	–	–	–	–	–	–	–	–
NCI-H1563	0.607	0.681	0.655	0.637	0.682	0.527	0.594	0.628	0.555	0.652	0.705	0.766	0.753	0.727	0.766	–	–	–	–	–
NCI-H1623	0.557	0.499	0.611	0.608	0.551	–	–	–	–	–	0.439	0.435	0.454	0.378	0.4	–	–	–	–	–
NCI-H1648	–	–	–	–	–	–	–	–	–	–	0.274	0.265	–	0.224	0.257	0.236	0.23	0.227	0.288	0.255
NCI-H1703	–	–	–	–	–	0.286	0.224	0.236	0.273	0.284	–	–	–	–	–	–	–	–	–	–
NCI-H2342	0.512	0.567	0.54	0.549	0.544	–	–	–	–	–	0.652	0.613	0.623	0.509	0.547	0.488	0.57	0.58	0.576	0.44
SW 900	0.556	0.651	0.652	0.586	0.723	–	–	–	–	–	0.499	0.507	0.581	0.509	0.568	–	0.51	0.288	0.19	0.186
